Key:
pea plants = test: Effect on etiolated pea plant growth in the presence of ethylene; assay type: in vivo; conditions: pea plants grown in the presence of 1 ppm of ethylene, FIG. 1
Source text: FIG. 1. Effect of 1,6-dicyclopropenyl-hexane on etiolated plea plant growth.

Volatility = assay type: physicochemical
ethylene responses = test: Anti-ethylene activity when applied as a gas; assay type: in vivo
bananas = test: Protection of bananas from ethylene responses; assay type: in vivo, banana

Compound: C1=C(CCCCCCC2=CC2)C1 [1,6-dicyclopropenyl-hexane]
- anti-ethylene activity (pea plant growth) (pea plants): significant anti-ethylene activity
- volatility (Volatility): volatile
- active concentration (ethylene responses; applied as a gas): 0.3 nL L^−1
- efficiency at different temperatures (ethylene responses; in vivo): work efficiently at different temperatures
- duration of protection from ethylene responses (bananas): at least 42 days
